Laboratory results published in patent US20230365561A1, “BETA-LACTAMASE INHIBITORS AND THEIR PREPARATION” (NINGXIA ACADEMY OF AGRICUL TURE AND FORESTRY SCIENCES, priority 2020, published 2023).
Where a name gives a salt, the structure may show the parent alone.

Columns and labels:
Format in all cases: cell-based
[1] = tested on: E. cloacae clinical isolate (strain 5); assay: MIC by broth microdilution (alone and in combination with meropenam), strain 5; conditions: Enterobacter cloacae, compound alone, read-out: MIC, antibacterial activity of example alone
How it was run: (§1)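 Meropenem was diluted two-fold (0.125-64 mg/L final) in cation-adjusted Mueller-Hinton Broth II, with or without a constant 4 µg/mL of test compound. Bacteria were added at roughly 5x10^5 CFU/mL, plates incubated 37° C for 18-24 h, and growth inspected visually for the MIC.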

[2] = tested on: E. cloacae 700323 (strain 6); assay: MIC by broth microdilution (alone and in combination with meropenam), strain 6; conditions: Enterobacter cloacae, compound alone, read-out: MIC, antibacterial activity of example alone
How it was run: as §1

[3] = tested on: P. aeruginosa 9027 (strain 10); assay: MIC by broth microdilution (alone and in combination with meropenam), strain 10; conditions: Pseudomonas aeruginosa, compound alone, read-out: MIC, antibacterial activity of example alone
How it was run: as §1

[4] = tested on: A. baumannii 19606 (strain 8); assay: MIC by broth microdilution (alone and in combination with meropenam), strain 8; conditions: Acinetobacter baumannii, compound alone, read-out: MIC, antibacterial activity of example alone
How it was run: as §1

[5] = tested on: K. pneumoniae 700603 (strain 4); assay: MIC by broth microdilution (alone and in combination with meropenam), strain 4; conditions: Klebsiella pneumoniae, compound alone, read-out: MIC, antibacterial activity of example alone
How it was run: as §1

[6] = tested on: E. coli clinical isolate (strain 1); assay: MIC by broth microdilution (alone and in combination with meropenam), strain 1; conditions: Escherichia coli, compound alone, read-out: MIC, antibacterial activity of example alone
How it was run: as §1

[7] = tested on: K. pneumoniae clinical isolate (strain 3); assay: MIC by broth microdilution (alone and in combination with meropenam), strain 3; conditions: Klebsiella pneumoniae, compound alone, read-out: MIC, antibacterial activity of example alone
How it was run: as §1

[8] = tested on: A. baumannii clinical isolate (strain 7); assay: MIC by broth microdilution (alone and in combination with meropenam), strain 7; conditions: Acinetobacter baumannii, compound alone, read-out: MIC, antibacterial activity of example alone
How it was run: as §1

[9] = tested on: P. aeruginosa clinical isolate (strain 9); assay: MIC by broth microdilution (alone and in combination with meropenam), strain 9; conditions: Pseudomonas aeruginosa, compound alone, read-out: MIC, antibacterial activity of example alone
How it was run: as §1

E. coli 8739 (strain 2) = assay: MIC by broth microdilution (alone and in combination with meropenam), strain 2; conditions: Escherichia coli, compound alone, read-out: MIC, antibacterial activity of example alone
How it was run: as §1

MIC [1]	MIC [2]	MIC [3]	MIC [4]	MIC [5]	MIC [6]	MIC [7]	MIC [8]	MIC [9]	MIC (E. coli 8739 (strain 2))	SMILES
> 64 mg/L	> 64 mg/L	> 64 mg/L	> 64 mg/L	> 64 mg/L	> 64 mg/L	> 64 mg/L	> 64 mg/L	> 64 mg/L	> 64 mg/L	N=C(NC(=O)c1cocn1)[C@@H]1CC[C@@H]2CN1C(=O)N2OS(=O)(=O)[O-].[Na+] [Ex.20, Sodium (2S,5R)-2-(N-(oxazole-4-carbonyl)carbamimidoyl)-7-oxo-1,6-diazabicyclo[3.2.1]octan-6-yl Sulfate]
> 64 mg/L	> 64 mg/L	> 64 mg/L	> 64 mg/L	> 64 mg/L	> 64 mg/L	> 64 mg/L	> 64 mg/L	> 64 mg/L	> 64 mg/L	CN1CCC[C@H](C(=O)NC(=N)[C@@H]2CC[C@@H]3CN2C(=O)N3OS(=O)(=O)[O-])C1.[Na+] [Ex.28, Sodium (2S,5R)-2-(N-((S)-1-methylpiperidine-3-carbonyl)carbamimidoyl)-7-oxo-1,6-diazabicyclo[3.2.1]octan-6-yl Sulfate]
> 64 mg/L	> 64 mg/L	> 64 mg/L	> 64 mg/L	> 64 mg/L	> 64 mg/L	> 64 mg/L	> 64 mg/L	> 64 mg/L	> 64 mg/L	N=C(NC(=O)CN)[C@@H]1CC[C@@H]2CN1C(=O)N2OS(=O)(=O)[O-].[Na+] [Ex.15, Sodium (2S,5R)-2-(N-glycylcarbamimidoyl)-7-oxo-1,6-diazabicyclo[3.2.1]octan-6-yl Sulfate]
> 64 mg/L	> 64 mg/L	> 64 mg/L	> 64 mg/L	> 64 mg/L	> 64 mg/L	> 64 mg/L	> 64 mg/L	> 64 mg/L	> 64 mg/L	CN1CCC(C(=O)NC(=N)[C@@H]2CC[C@@H]3CN2C(=O)N3OS(=O)(=O)[O-])CC1.[Na+] [Ex.41, Sodium (2S,5R)-2-(N-(1-methylpiperidine-4-carbonyl)carbamimidoyl)-7-oxo-1,6-diazabicyclo[3.2.1]octan-6-yl Sulfate]
> 64 mg/L	> 64 mg/L	> 64 mg/L	> 64 mg/L	> 64 mg/L	> 64 mg/L	> 64 mg/L	> 64 mg/L	> 64 mg/L	> 64 mg/L	N=C(NC(=O)CC1CCOCC1)[C@@H]1CC[C@@H]2CN1C(=O)N2OS(=O)(=O)[O-].[Na+] [Ex.38, Sodium (2S,5R)-7-oxo-2-(N-(2-(tetrahydro-2H-pyran-4-yl)acetyl)carbamimidoyl)-1,6-diazabicyclo[3.2.1]octan-6-yl Sulfate]
> 64 mg/L	> 64 mg/L	> 64 mg/L	> 64 mg/L	> 64 mg/L	> 64 mg/L	> 64 mg/L	> 64 mg/L	> 64 mg/L	> 64 mg/L	N=C(N)NOCCC(=O)NC(=N)[C@@H]1CC[C@@H]2CN1C(=O)N2OS(=O)(=O)O [Ex.43, (2S,5R)-2-(N-(3-(guanidinooxy)propanoyl)carbamimidoyl)-7-oxo-1,6-diazabicyclo[3.2.1]octan-6-yl Hydrogen Sulfate]
> 64 mg/L	> 64 mg/L	> 64 mg/L	> 64 mg/L	> 64 mg/L	> 64 mg/L	> 64 mg/L	> 64 mg/L	> 64 mg/L	> 64 mg/L	CC(=O)N1CCC(C(=O)NC(=N)[C@@H]2CC[C@@H]3CN2C(=O)N3OS(=O)(=O)[O-])CC1.[Na+] [Ex.4, Sodium (2S,5R)-2-(N-(1-acetylpiperidine-4-carbonyl)carbamimidoyl)-7-oxo-1,6-diazabicyclo[3.2.1]octan-6-yl Sulfate]
